Results taken from ChEMBL document CHEMBL5331082, “p53 as a potential target for treatment of cancer: A perspective on recent advancements in small molecules with structural insights and SAR studies” (Eur J Med Chem, 2023).
Converted amounts (≈) assume the structure as drawn.

Experiments:
[1] = test system: MCF7; experiment: Antiproliferative activity against human MCF7 cells assessed as inhibition of cell growth by MTT assay; type: functional, cell-based
[2] = test system: HCT-116; experiment: Antiproliferative activity against human HCT-116 cells assessed as inhibition of cell growth by MTT assay; type: functional, cell-based
[3] = test system: HeLa; experiment: Antiproliferative activity against human HeLa cells assessed as inhibition of cell growth by MTT assay; type: functional, cell-based
[4] = test system: MCF7; experiment: Antiproliferative activity against human MCF7 cells assessed as inhibition of cell growth; type: functional, cell-based
[5] = test system: MDA-MB-231; experiment: Induction of apoptosis in human MDA-MB-231 cells assessed as increase in p53 level; type: functional
[6] = test system: HCT-116; experiment: Antiproliferative activity against human HCT-116 cells assessed as inhibition of cell growth; type: functional, cell-based
[7] = test system: A549; experiment: Antiproliferative activity against human A549 cells assessed as inhibition of cell growth; type: functional, cell-based
[8] = test system: A549; experiment: Induction of apoptosis in human A549 cells assessed as increase in p53 level; type: functional
[9] = test system: PC-3; experiment: Antiproliferative activity against human PC-3 cells assessed as inhibition of cell growth; type: functional, cell-based
[10] = test system: PC-3; experiment: Induction of apoptosis in human PC-3 cells assessed as increase in p53 level; type: functional
[11] = test system: HCT-116; experiment: Induction of apoptosis in human HCT-116 cells assessed as increase in p53 level; type: functional
[12] = test system: MDA-MB-231; experiment: Antiproliferative activity against human MDA-MB-231 cells assessed as inhibition of cell growth; type: functional, cell-based
[13] = test system: U-87 MG; experiment: Antiproliferative activity against human U-87 MG cells assessed as inhibition of cell growth by CCK-8 assay; type: functional, cell-based, U-87MG ATCC
[14] = test system: SH-SY5Y; experiment: Antiproliferative activity against human SH-SY5Y cells assessed as inhibition of cell growth by CCK-8 assay; type: functional, cell-based
[15] = target: E3 ubiquitin-protein ligase Mdm2 (Homo sapiens) (UniProt Q00987); experiment: Binding affinity to MDM2 (unknown origin) at 10 uM relative to control
[16] = test system: HCT-116; experiment: Antiproliferative activity against human HCT-116 cells assessed as inhibition of cell growth by CCK-8 assay; type: functional, cell-based
[17] = test system: PC-3; experiment: Antiproliferative activity against human PC-3 cells assessed as inhibition of cell growth by MTT assay; type: functional, cell-based
[18] = test system: LNCaP; experiment: Antiproliferative activity against human LNCaP cells expressing p53 assessed as inhibition of cell growth by MTT assay; type: functional, cell-based
[19] = test system: K562; experiment: Antiproliferative activity against human K562 cells assessed as inhibition of cell growth; type: functional, cell-based
[20] = target: T1, Tumour suppressor p53/oncoprotein Mdm2 (Homo sapiens, UniProt P04637+Q00987); experiment: Inhibition of MDM2/p53 interaction (unknown origin); type: protein assay
[21] = test system: HL-60; experiment: Antiproliferative activity against human HL-60 cells assessed as inhibition of cell growth; type: functional, cell-based
[22] = test system: U-87 MG; experiment: Antiproliferative activity against human U87 cells assessed as inhibition of cell growth; type: functional, cell-based, U-87MG ATCC
[23] = test system: JEG-3; experiment: Antiproliferative activity against human JEG-3 cells assessed as inhibition of cell growth; type: functional, cell-based
[24] = target: T1, Tumour suppressor p53/oncoprotein Mdm2; experiment: Binding affinity to MDM2/p53 interaction (unknown origin) assessed as inhibition constant; type: protein assay
[25] = target: Tumour suppressor protein p53/Mdm4 (Homo sapiens, UniProt O15151+P04637); experiment: Binding affinity to MDM4/p53 interaction (unknown origin) assessed as inhibition constant; type: protein assay
[26] = test system: HT-29; experiment: Antiproliferative activity against human HT-29 cells assessed as inhibition of cell growth by MTT assay; type: functional, cell-based
[27] = test system: PANC-1; experiment: Antiproliferative activity against human PANC-1 cells assessed as inhibition of cell growth by MTT assay; type: functional, cell-based
[28] = test system: A549; experiment: Antiproliferative activity against human A549 cells assessed as inhibition of cell growth by MTT assay; type: functional, cell-based
[29] = target: E3 ubiquitin-protein ligase Mdm2 (Homo sapiens) (UniProt Q00987); experiment: Binding affinity to MDM2 (unknown origin) assessed as change in Gibbs free energy

T1 sequence (P04637 whole entry): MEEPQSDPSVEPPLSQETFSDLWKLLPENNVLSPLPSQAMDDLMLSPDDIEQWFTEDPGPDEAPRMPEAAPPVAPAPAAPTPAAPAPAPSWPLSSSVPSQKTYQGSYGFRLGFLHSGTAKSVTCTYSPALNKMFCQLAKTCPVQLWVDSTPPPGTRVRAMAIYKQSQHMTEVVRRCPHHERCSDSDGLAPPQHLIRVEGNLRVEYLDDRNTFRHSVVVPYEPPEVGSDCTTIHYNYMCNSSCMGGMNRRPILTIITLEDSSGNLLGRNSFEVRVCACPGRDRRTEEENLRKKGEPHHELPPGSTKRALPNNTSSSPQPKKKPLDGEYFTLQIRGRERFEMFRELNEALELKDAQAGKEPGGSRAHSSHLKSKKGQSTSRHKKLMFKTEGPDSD
T1 sequence (Q00987 whole entry): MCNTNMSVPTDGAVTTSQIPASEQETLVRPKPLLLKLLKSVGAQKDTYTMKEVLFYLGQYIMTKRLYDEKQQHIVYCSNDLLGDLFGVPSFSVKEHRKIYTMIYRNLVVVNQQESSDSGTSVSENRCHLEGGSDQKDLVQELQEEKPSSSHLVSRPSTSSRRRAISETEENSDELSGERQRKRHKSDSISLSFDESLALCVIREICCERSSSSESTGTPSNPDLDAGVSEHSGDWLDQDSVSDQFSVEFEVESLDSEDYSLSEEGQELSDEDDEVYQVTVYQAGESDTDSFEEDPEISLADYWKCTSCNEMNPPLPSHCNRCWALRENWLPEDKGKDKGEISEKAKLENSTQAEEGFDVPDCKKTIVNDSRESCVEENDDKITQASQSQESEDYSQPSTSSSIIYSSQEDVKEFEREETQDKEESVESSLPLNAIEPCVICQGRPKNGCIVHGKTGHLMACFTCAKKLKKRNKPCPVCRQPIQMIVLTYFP
Chain of E3 ubiquitin-protein ligase Mdm2 (Homo sapiens) (Q00987 whole entry, looked up): as the sequence (Q00987 whole entry) above
Chain of Tumour suppressor protein p53/Mdm4 (P04637 whole entry): as the sequence (P04637 whole entry) above
Chain of Tumour suppressor protein p53/Mdm4 (O15151 whole entry): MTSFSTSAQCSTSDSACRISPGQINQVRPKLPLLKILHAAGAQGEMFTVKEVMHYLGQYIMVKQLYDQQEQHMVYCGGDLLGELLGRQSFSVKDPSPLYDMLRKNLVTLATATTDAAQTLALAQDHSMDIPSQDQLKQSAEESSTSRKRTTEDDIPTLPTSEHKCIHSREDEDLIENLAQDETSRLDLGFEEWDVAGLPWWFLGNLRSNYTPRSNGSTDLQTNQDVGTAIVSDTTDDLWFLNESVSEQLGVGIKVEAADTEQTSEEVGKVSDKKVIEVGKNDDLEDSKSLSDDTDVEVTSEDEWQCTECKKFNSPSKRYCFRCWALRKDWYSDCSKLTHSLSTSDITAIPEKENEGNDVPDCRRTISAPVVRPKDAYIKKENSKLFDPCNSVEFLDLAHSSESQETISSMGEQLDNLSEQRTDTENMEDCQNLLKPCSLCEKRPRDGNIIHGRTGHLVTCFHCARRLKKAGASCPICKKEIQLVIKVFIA

Cc1cc(S(=O)(=O)/N=C2/NCCN2Cc2cc(C(F)(F)F)cc(C(F)(F)F)c2)c(SCc2nc(N)nc(N3CCN(c4ccccc4)CC3)n2)cc1Cl
IC50 [1]: 3.6 µM
IC50 [2]: 3.6 µM
IC50 [3]: 3.6 µM

O=C1/C(=C/c2ccc(Br)cc2)CCC[C@]12[C@@H]1CCCN1[C@@]1(C(=O)Nc3ccccc31)[C@H]2c1ccc(Br)cc1
IC50 [4]: 15.5 µM

C[C@@H]1[C@@H]2CCCC[C@@H]2N2[C@H]1[C@@H](c1ccccc1)[C@@]1(CCC/C(=C\c3ccccc3)C1=O)[C@@]21C(=O)Nc2ccccc21
IC50 [3]: 7.1 µM

O=C(c1nc2ccccc2[nH]1)[C@H]1[C@H](c2ccccc2)C2CC3CCCCC3N2[C@]12C(=O)Nc1ccc(Cl)cc12 (stereo partly drawn)
Activity [5]: 51.51%
IC50 [6]: 7.24 µM
IC50 [7]: 7.81 µM
Activity [8]: 34.31%
IC50 [9]: 3.4 µM
Activity [10]: 57.53%
Activity [11]: 49.83%
IC50 [12]: 2.4 µM

O=C1NC(O)(c2ccc(Cl)cc2)C(c2ccc(Cl)cc2)=C1c1ccc(Cl)cc1 (stereo not drawn)
IC50 [13]: 0.93 µM
IC50 [14]: 1.48 µM
Activity [15]: 97%
IC50 [16]: 0.59 µM

CN1[C@H](c2ccc(Cl)cc2)[C@@]2(C[C@]13C(=O)Nc1ccc(Br)cc13)NC(=O)N(c1ccc(F)c(Cl)c1)C2=O
IC50 [1]: 1.3 µM

C[C@@H]1[C@@H]2CCCC[C@@H]2N2[C@H]1[C@@H](c1ccc(F)cc1)[C@@]1(CCC/C(=C\c3ccc(F)cc3)C1=O)[C@@]21C(=O)Nc2cc(Cl)ccc21
IC50 [3]: 7.2 µM

COc1ccc([C@@H]2CN(C)[C@@]3(C(=O)Nc4ccccc43)[C@]23N=C(c2ccc(C)cc2)OC3=O)cc1
IC50 [17]: 3.21 µM
IC50 [18]: 1.08 µM

COc1ccc(/C=C2\CCC[C@@]3(C2=O)[C@@H]2CCCN2[C@@]2(C(=O)Nc4ccccc42)[C@H]3c2ccc(OC)cc2)cc1
IC50 [19]: 13.4 µM

Cc1cc(S(=O)(=O)/N=C2/NCCN2Cc2ccc(C(F)(F)F)cc2)c(SCc2nc(N)nc(N3CCN(c4cccc(F)c4)CC3)n2)cc1Cl
IC50 [1]: 4.6 µM
IC50 [2]: 4.6 µM
IC50 [3]: 4.6 µM

C[C@@H]1[C@@H]2CCCC[C@@H]2N2[C@H]1[C@@H](c1ccccc1)[C@@]1(CCC/C(=C\c3ccccc3)C1=O)[C@@]21C(=O)Nc2cc(Cl)ccc21
IC50 [17]: 3.7 µM

COc1cc(OC)c(C(=O)/C=C/c2ccc(Br)cc2)c(OCC=C(C)C)c1
IC50 [20]: 2.1 µM

O=C(Nc1cccc(Cl)c1)Sc1nnc(-c2ccc(Cl)cc2)n1-c1ccccc1
IC50 [7]: 3.85 µM
IC50 [21]: 17.5 µM
IC50 [22]: 4.15 µM

Cc1cc(S(=O)(=O)/N=C2/NCCN2Cc2cc(C(F)(F)F)cc(C(F)(F)F)c2)c(SCc2nc(N)nc(N3CCN(Cc4ccccc4)CC3)n2)cc1Cl
IC50 [1]: 4.8 µM
IC50 [2]: 4.8 µM
IC50 [3]: 4.8 µM

C[C@@H]1CN(C)[C@]2(C(=O)N(CN3CCSCC3)c3ccccc32)[C@@]12CCC/C(=C\c1ccccc1)C2=O
IC50 [4]: 31 µg/mL
IC50 [23]: 31 µg/mL (≈ 61.8 µM)
IC50 [12]: 31 µg/mL

O=c1[nH]cc(F)c(=O)[nH]1 [FLUOROURACIL]
IC50 [4]: 78.3 µM

O=C1/C(=C/c2cccc(Cl)c2)c2ccccc2N1S(=O)(=O)c1cccc(Cl)c1
IC50 [6]: 11.2 µM
IC50 [7]: 12.5 µM
Ki [24]: 7.24 µM
IC50 [4]: 6.17 µM
Ki [25]: 0.031 µM

C[C@@H]1CN(C)[C@]2(C(=O)N(CN3CCCC3)c3ccccc32)[C@@]12CCC/C(=C\c1ccccc1)C2=O
IC50 [4]: 31 µg/mL
IC50 [23]: 31 µg/mL (≈ 66 µM)
IC50 [12]: 31 µg/mL

COc1ccc(-c2nc3sc(-c4ccc(Br)cc4Br)cn3n2)cc1
IC50 [1]: 1.2 µM
IC50 [26]: 1.3 µM
IC50 [27]: 1.6 µM
IC50 [28]: 1.4 µM
deltaG [29]: -7.55 kcal/mol

Cc1cc(S(=O)(=O)/N=C2/NCCN2Cc2ccc(C(F)(F)F)cc2)c(SCc2nc(N)nc(N3CCN(c4cccc(C(F)(F)F)c4)CC3)n2)cc1Cl
IC50 [1]: 5 µM
IC50 [2]: 5 µM
IC50 [3]: 5 µM
